For one experiment, the system named is MC38-hPDL1 cells. In words: In vitro cytotoxicity on MC38-hPDL1 cells (CellTiter-Glo). The experiment is classed as cell-based, mouse. Here is the method:
(§1) Test Embodiment 5. In Vitro Cytotoxicity of the Compounds of the Present Disclosure on NFAT-Luc2/PD1 Jurkat Cells and MC38-hPDL1 Cells
(§2) Experimental purpose: To test the in vitro cytotoxicity of compounds on NFAT-luc2/PD1 Jurkat cells and MC38-hPDL1 cells.
(§3) When the cells were cultured to an appropriate degree of confluency, the cells were collected, and the cells was adjusted in an appropriate cell concentration by complete medium, then the cell suspension was plated in a 96-well plate, 90 μL per well, and put in a 37° C., 5% CO2 incubator overnight; compound solutions of different concentrations were prepared by DMSO and medium, and a vehicle control was set; compound solutions were added to a 96-well plate, 10 μL per well, and put in a 37° C., 5% CO2 incubator and cultured for 72 hours. After that, CellTiter-Glo solution was added, the mixture was shaken and mixed evenly, incubated in the dark for 10 minutes, and a BioTek Synergy H1 microplate reader was used for reading.
(§4) Luminescence signal value was used to calculate the inhibition rate, and the concentration and inhibition rate were fitted by nonlinear regression curve using Graphpad Prism software to obtain IC50 values, as shown in the following table: […]

For experiment [1], the system named is CHO-PDL1/Jurkat-PD1 cell pathway. In words: Inhibition of CHO-PDL1/Jurkat-PD1 cell pathway (NFAT luciferase reporter). The experiment is classed as cell-based. The method in brief: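 CHO-K1 cells stably expressing PD-L1, plated overnight, then co-cultured with PD-1/NFAT-luc2 Jurkat cells plus compounds in RPMI 1640 with 2% FBS for 6 h at 37 °C. Luminescence read after One-Glo, 10 min at RT. EC50 fitted from the concentration–signal curve; maximum induction fold calculated relative to the non-dosed group.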
In general terms: In a reporter assay the amount or activity of a reporter protein is the signal.

Experiment [2] has as its target T1, PD-L1 protein on the surface of MC38-hPDL1 tumor cells (Homo sapiens, UniProt Q9NZQ7).
T1 construct: expressed in transfected cells; host or cells: MC38-hPDL1 (mouse colon cancer cells)
Description: Induction of endocytosis of PD-L1 on the surface of tumor cells (flow cytometry). The experiment is classed as cell-based. The settings on record: 16 hours incubation. The essentials: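 MC38-hPDL1 mouse colon cancer cells overexpressing human PD-L1 were exposed to compound dilutions for 16 h at 37 °C. Surface PD-L1 was then stained with PE anti-human CD274 for 30 min at room temperature and measured by flow cytometry. Endocytosis rate versus concentration was fitted by nonlinear regression to give IC50.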
Background: A flow cytometer gives signals particle by particle.

The target in another experiment is T2, human PD-L1 protein (Homo sapiens, UniProt Q9NZQ7).
T2 construct: purchased Acro Biosystems PD1-H5229
T2 sequence (Q9NZQ7 19-238 limits assumed): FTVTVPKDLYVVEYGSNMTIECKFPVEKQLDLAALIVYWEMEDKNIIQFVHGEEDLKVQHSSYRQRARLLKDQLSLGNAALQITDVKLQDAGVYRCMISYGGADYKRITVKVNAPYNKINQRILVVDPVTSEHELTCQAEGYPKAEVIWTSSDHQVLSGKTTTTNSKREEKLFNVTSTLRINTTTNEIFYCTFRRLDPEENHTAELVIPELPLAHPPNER
In words: Thermal shift: melting temperature of PD-L1 protein. The settings on record: compound 10 μM, PD-L1 protein 2 μM, Tm minus DMSO vehicle control; read-out: ΔTm (° C.). The experiment is classed as binding. The method in brief:
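Human PD-L1 at 2 μM final was tested in […], 150 mM NaCl with SYPRO Orange, heated 25→95 °C at 0.03 °C/s in a PCR melt-curve run. Tm was taken per treatment; ΔTm is the shift relative to DMSO vehicle.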

Experiment [3] relates to NFAT-luc2/PD1 Jurkat cells. In words: In vitro cytotoxicity on NFAT-luc2/PD1 Jurkat cells (CellTiter-Glo). The experiment is classed as cell-based. The settings on record: 72 hours. Here is the method: as §1, §2, §3, §4
Background: Cellular ATP, detected with luciferase, serves as a proxy for viable cell number.

This is an account of results in patent publication US20230105212A1, “BIPHENYL DERIVATIVE INHIBITOR, PREPARATION METHOD THEREFOR AND USE THEREOF” (SHANGHAI HANSOH BIOMEDICAL CO., LTD., priority 2020, published 2023).

T1 sequence (Q9NZQ7 19-290): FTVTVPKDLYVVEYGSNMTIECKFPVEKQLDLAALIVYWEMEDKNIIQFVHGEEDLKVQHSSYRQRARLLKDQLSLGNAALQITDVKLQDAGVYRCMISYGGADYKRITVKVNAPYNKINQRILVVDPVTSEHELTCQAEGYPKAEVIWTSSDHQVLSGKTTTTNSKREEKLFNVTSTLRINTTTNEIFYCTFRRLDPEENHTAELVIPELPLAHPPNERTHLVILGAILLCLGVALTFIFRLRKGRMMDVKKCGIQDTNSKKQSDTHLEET

In the case of `COc1cc(C(=O)Nc2cccc(-c3cccc(NC(=O)c4nc5c(n4C)CCN(C)C5)c3Cl)c2C)ncc1CNc1ccnc(C)n1` [Embodiment 90, N-(2-Chloro-3′-(4-methoxy-5-(((2-methylpyrimidin-4-yl)amino)methyl)picolinamido)-2′-methyl-[1,1′-biphenyl]-3-yl)-1,5-dimethyl-4,5,6,7-tetrahydro-1H-imidazo[4,5-c]pyridine-2-carboxamide], in the experiment on MC38-hPDL1 cells (72 hours), the “MC38-hPDL1 inhibition rate (%)” value worked out at 6.8%. Further, the IC50 (in general, the concentration that inhibits the measured activity by half) is over 10000 nM in the experiment on MC38-hPDL1 cells (Mus musculus, MC38-hPD-L1, 72 hours); 9.9 nM in experiment [2] (inducing endocytosis of PD-L1, MC38-hPDL1 cells, read-out: MC38 IC50); 1400 nM in experiment [3] (Homo sapiens, Jurkat). The EC50 (commonly the concentration at which the effect is half-maximal) in experiment [1] (6 hours incubation, luciferase signal) stood at 99 nM. The maximal fold induction in experiment [1] (relative to the signal value of the non-dosed group, read-out: Maximum induction fold) turned out to be 3.2. In experiment [2] (MC38-hPDL1 cells, read-out: MC38 maximum endocytosis rate), the Emax was found to be 80%. Besides, at human PD-L1 protein, the thermal shift (ΔTm) (as a rule, the change in melting temperature against a reference sample) at 10 µM is 11 °C. Also, the “Jurkat-PD1 inhibition rate (%)” value in experiment [3] was found to be 99.0%^.
